Results on 1 sequence are retold here after patent US10801023B2, “Methods of identifying biologically active random peptides in plants and libraries of plants expressing candidate biologically active random peptides” (University of Florida Research Foundation, Inc., priority 2015, dated 2020).

One assay has as its system Arabidopsis plants. The assay is described as follows: Plant growth and phenotyping of PEP6 / PEP12 transgenic plants. The format is in vivo, Arabidopsis thaliana. The conditions noted are these: transgenic plant in soil; normal-sized plants 25 mm to 30 mm. From the text: Two libraries encoding six- and twelve-random amino acid cyclized peptides (denoted PEP6 and PEP12, respectively) were constructed in binary vectors (as illustrated in FIG. 9) using a Gateway cloning strategy and transformed into Arabidopsis. More than 1,500 transgenic plants with the PEP6 T-DNA inserts were isolated and more than 600 transgenic plants were isolated carrying the PEP12 insert, representing a survival ratio of 1.8% and 1.2% respectively under kanamycin selection. To ensure library representation in the population, DNA was prepared from at least fifty transgenic plants, including ten that had small rosette diameter (5 mm to 10 mm) (e.g., those having BARP sequences SEQ ID NO: 14, 16, 6, 19, 21, 23, 26, 28, 30, and 32) compared to normal-sized plants (25 mm to 30 mm; see Table 2). The nucleotide sequences of all amplified random peptide open reading frames (rpORFs) were different, indicating representation of library diversity was maintained throughout the cloning and transformation process. Several phenotypes were visually apparent. […] Some plants showing multiple growth defects were recorded in each phenotype. Bolting plants with multiple inflorescences were transformed with the PEP6 or PEP12 destination library through the floral dipping method (Clough and Bent, 1998, incorporated herein by reference). For selection, seeds were surface sterilized by 70% ethanol for 5 min and 10% bleach for 20 min. Surface-sterilized seeds were plated on ½× MS basal medium with 0.5% Phyto Agar (cat. # M10200 and # A20300, Research Products International) and 50 μg/ml kanamycin for selection. Transgenic seedlings were identified by GFP expression or resistance to kanamycin. Transformed seedlings were grown to the 3-5 true leaf stage on plates and transferred to soil. DNA was extracted from each seedling (Edwards et al., 1991 incorporated herein by reference) for inserted nucleotide sequence identification. An approximately 500 bp DNA fragment containing the random peptide ORF and part of pK7WG2D vector sequence was amplified using primers PEP-F and PEP-R (SEQ ID NOs: 35 and 36, respectively) listed in Table 4 and sequenced. Arabidopsis plants were grown in soil at 20° C. under 16 hour light/8 hour dark conditions. The characterization of phenotypic variations was based on the comparison among seedlings grown in the same pot or flat.

The next assay relates to Arabidopsis seedlings. Kind of assay: Effects of lethal sequences: growth of PEP6-3 seedlings with or without sucrose. The format is in vivo, Arabidopsis thaliana. From the text:
If these seedlings were transplanted to media supplemented with 2% sucrose some of them survived. These surviving seedlings were genotyped. One of these seedlings grew on a sucrose plate for one month and in soil for another 2 months before bolting and setting seeds. The rpORF was re-cloned and transformed into Col-0 Arabidopsis to generate independent transformation lines. […] The T2 seeds from the original line and 5 independent lines were sown on a ½ MS plate with or without sucrose under kanamycin selection. Seeds on both types of media germinated at a rate of 95%. […] The effect of the peptide was tested in petunia. […] Thus, the BARP for PEP6-3 (SEQ ID NO: 14, nucleotide sequence SEQ ID NO: 13) appears to produce phenotype that requires sucrose media.
It is possible that the phenotypes observed were not related to the peptide sequence, but instead were artifacts of T-DNA integration, since insertion of the CaMV35S-bearing T-DNA cassette could potentially disrupt a gene where an effect could be observed in its heterozygous form, or the viral promoter could activate expression of neighboring genes, resulting in an observable phenotype. Thus, to generate a series of independent transformants for each sequence of interest, the random peptide ORFs from transgenic plants showing aberrant phenotypes were amplified using attB universal adaptor primers, and cloned into pDONR222 and pK7WG2D vectors via BP and LR reactions, respectively. These constructs were then transformed into Arabidopsis to generate additional independent transgenic lines. Each series of independent transgenic lines containing the same random peptide ORF were grown under the same conditions used to produce the original phenotype. Transcript abundance of the random peptide ORF and the control gene Ubiquitin family protein (UFP, At4g01000) in every transgenic line was analyzed by semi-quantitative RT-PCR using attB1 and attB2 adaptor primers or UFP-rF and -rR primers (SEQ ID NOs: 37-38), respectively.
The seedling was moved to media containing sucrose where it then developed normally. Five independent lines (1, 2, 3, 4 and 6) containing the PEP6-3 sequence (SEQ ID NO: 13) were grown under kanamycin selection on ½ MS medium with or without the supplement of 2% sucrose in dark for the first 7 d and then exposed to light. Without sucrose, some seedlings with only the two cotyledons or the first two true leaves died eventually, and only a few seedlings fully developed. The proportion of seedlings developed with the first two true leaves or fully developed was recorded.

The test system of another assay is Petunia hybrida. Kind of assay: Petunia transformation with PEP6-3. The assay is classed as in vivo. The conditions noted are these: five independent transgenic shoots, versus controls. The procedure:
PEPS-3 was introduced into Petunia hybrida by Agrobacterium tumefaciens-mediated transformation of leaf fragments, following a modified protocol by Jorgensen et al, (1996), incorporated herein by reference. Leaves were dissected into 4×5 mm fragments and immersed in Agrobacterium solution for 15 min, then transferred to MS agar plates supplemented with TDZ (1 μg/mL), galacturonic add (212 μg/mL) and acetosyringone (8 μg/mL). After 2 d in darkness, explants were transferred to MS medium containing TDZ (1 μg/mL), carbenicillin (500 μg/mL) and kanamycin (150 μg/mL) for two weeks. Callusing explants were then transferred to light on MS medium containing only antibiotics. After the appearance of shoots, these were transferred to MS medium containing antibiotics and IBA (0.8 μg/mL), for root formation.

[1] abbreviates: ½ MS plate without sucrose, kanamycin selection, T2 seeds.

As for “MACRGVDSAC (chemically synthesized peptide sequence of BARP PEP6-3) [BARP producing sucrose dependent phenotype]”, the rosette size in the assay with Arabidopsis plants is 5 mm. In addition, in the assay with Arabidopsis seedlings (20 independent transgenic lines versus control lines), the “size of independent transgenic lines” value is “grew smaller than control lines”. Besides, the “development of germinated seeds on sucrose plates” value in the assay on Arabidopsis seedlings (½ MS plate with 2% sucrose) is “grew into fully-developed plants”. This sequence had a germination rate with Arabidopsis seedlings (½ MS plate with or without sucrose (both types of media)) of 95%. In the assay with Arabidopsis seedlings (setting [1]), the “transgenic seedlings forming true leaves” value is given as below 30% and the “transgenic seedlings growing into fully-developed plants” value is below 10%. Also, the “growth of transgenic petunia shoots” value in the assay with Petunia hybrida is “grew slowly compared to controls before turning pale and dying after several weeks”.
